Patent publication US20120101257A1, “PROCESSES FOR PREPARING AMINO-SUBSTITUTED GAMMA-LACTAMS” (UNIVERSITE DE MONTREAL, priority 2009, published 2012)
*1 amine or outer side, *2 acyl side, *3 side chain or, on linkers, in order; H or OH if unused. Where a SMILES comes first, the peptide text is derived from it. [ ]: non-standard residue; d: D form. X12 = CC(C)C[C@@H](NC(=N)[C@@H](CCC(=O)O)N1C[C@H](N[*:1])CC1=O)C(=O)[*:2]; X13 = C[C@@H](O)[C@H](C(=O)[*:2])N1C[C@H](N[*:1])CC1=O; d(aThr) = C[C@@H](O)[C@@H](N)C(=O)O

What was measured:
[1] = system: TF-1 cells; test: [3H]thymidine incorporation, IL-1 induced TF-1 cell proliferation; format: cell-based, human; conditions: for increase in efficacy compared to 101.10, inhibition of IL-1 induced TF-1 proliferation: lactam peptide 1 μM, IL-1β 10 or 25 ng/mL; for percentage of proliferation of TF-1 cells pre-treated with peptide: IL-1 induced, [3H]thymidine incorporation as in Example 59
Procedure: Human TF-1 cells (5×10^4 cells/well) were cultured in complete RPMI medium (GIBCO RPMI Medium 1640, Invitrogen) supplemented with GM-CSF (Granulocyte Macrophage Colony Stimulating Factor, 2 ng/ml; BD Biosource). Cells were deprived of growth factors for 18 h before preincubation with lactam peptide (1 μM) followed by treatment with IL-1β (10 or 25 ng/mL). After 24 h incubation at 37° C., [^3H]thymidine (1 μCi/mL; Amersham) was added and the cells were incubated for another 24 h. Cells were harvested, washed two times with PBS (10 mM Na2HPO4, 2 mM KH2PO4, 137 mM NaCl, 2.7 mM KCl; pH 7.4) and lysed with a 0.1 N NaOH/0.1% Triton X-100 solution. Scintillation cocktail (Fisher Scientific, 8 mL/sample) was added to the lysate, and after 3 h, radioactivity was measured (Beckman Multi-Purpose Scintillation Coulter Counter LS6500). Results were analyzed by one- or two-way ANOVA factoring for concentration or treatments. Postanova comparisons among means were performed using the Tukey-Framer method. Statistical significance was set at p<0.05. Data are presented as mean±SEM.

Compound	increase in efficacy compared to 101.10, inhibition of IL-1 induced TF-1 proliferation [1] [fold]	percentage of proliferation of TF-1 cells pre-treated with peptide [1] [%]	other results
COC(=O)C[C@H]1COS(=O)(=O)N1C(=O)OCC1c2ccccc2-c2ccccc21 [(4S)-17, (4S)-Methyl-2-[3-(9-fluorenylmethoxycarbonyl)-2,2-dioxo-1,2,3-oxathiazolidin-4-yl]acetate]			melting point: 138 to 140 °C
CC(C)C[C@@H](NC(=O)[C@@H](CCC(=O)O)NC(=O)[C@H](NC(=O)[C@@H]([C@@H](C)O)N1C[C@H](NC(=O)[C@H](N)CCCNC(=N)N)CC1=O)C(C)C)C(=O)N[C@H](C)C(N)=O [Compound 76, D-Arg-(R)-Bgl-D-Thr-D-Val-D-Glu-D-Leu-D-Ala-NH2] (H-[dR][X13][dV][dE][dL][dA]-NH2)	1.7		
CC(C)C[C@@H](NC(=N)[C@@H](CCC(=O)O)N1C[C@H](NC(=O)[C@H](NC(=O)[C@@H](Cc2ccc(O)cc2)NC(=O)[C@H](N)CCCNC(=N)N)[C@@H](C)O)CC1=O)C(=O)N[C@H](C)C(N)=O [Compound 78, D-Arg-D-Tyr-D-Thr-(R)-Bgl-D-Glu-D-Leu-D-Ala-NH2] (H-[dR][dY][d(aThr)][X12][dA]-NH2)	2.4		
D-Arg-D-Tyr-(S)-Agl-D-Val-D-Glu-D-Leu-D-Ala-NH2 [Compound 93]		150	
D-Arg-D-Tyr-D-Thr-(S)-Agl-D-Glu-D-Leu-D-Ala-NH2 [Compound 94]		132	
